Drawing on patent US8273754B2, “Substituted 1H-pyrazolo[3,4-D]pyrimidine-6-amine compounds” (ArQule, Inc., priority 2008, dated 2012), this text covers IC50 and inhibition for 14 molecules.

Structures are written as SMILES. Where two headings read alike, the source gives them in different places.

The IC50 is the concentration that inhibits the measured activity by half. A higher IC50 goes with weaker potency.

Assay [1] has as its target T1, FGFR2 (N549H) (Homo sapiens, UniProt P21802, N549H).
T1 construct: purchased Millipore 14-742
The assay is described as follows: fluorescent ELISA assay for inhibitors of FGFR2 kinase. It counts as biochemical. To be noted: Pyk2 peptide substrate, 60 minutes. On the procedure:
The enzymatic assays described herein are conducted according to the following procedures from commercially available reagents. In one non-limiting example, a fluorescent ELISA assay is used to identify and characterize inhibitors of FGFR2 kinase as described herein. This heterogeneous assay utilizes a biotinylated peptide with a tyrosine motif as a substrate and an anti-phospho-tyrosine antibody to measure phosphorylation of the substrate. The reaction is initiated by adding the test compound, 37 μM Pyk2 substrate (Midwest Biotech, Cat. #MBT2383), 12.5 μM ATP (Roche, Cat. #11 140 965 001) and 0.5 μM FGFR2 enzyme (Millipore, Cat. #14-742) sequentially to a non-binding polypropylene V-well plate. All reagents are in an assay buffer consisting of: 50 mM Tris-HCL, 0.02 mg/ml BSA, 10 mM MgCl2, 0.1 mM Na3VO4, 1 mM EGTA, 75 μM ATP, 0.01% NP-40, 2 mM DTT and 10% glycerol. The reaction is incubated for 60 minutes. As the reaction proceeds, FGFR2 phosphorylates tyrosines in the peptide. The reaction mixture is then moved to a blocked streptavidin-coated Nunc Maxisorb plate (coated with 100 ng streptavidin from Pierce (Cat. #15-124) per well), allowing for the capture of the biotinylated peptide. Peptides are captured for 30 minutes at room temperature, the phosphorylation of peptides continues during this phase. The reaction is stopped by washing the streptavidin-coated plate 6 times with TBST. Phosphorylated peptide is detected by adding anti-phospho-tyrosine antibody (Cell Signaling, Cat. #9411, diluted 1:3000) to the streptavidin-coated plate. Unbound anti-phospho-tyrosine antibody is removed by washing the streptavidin-coated plate 6 times with TBST. Secondary detection is performed using alkaline phosphatase tagged goat anti-mouse antibody (Pierce, Cat. #31320, diluted 1:4000) for one hour. Unbound secondary antibody is removed by washing the streptavidin-coated plate 6 times with TBST. The fluorescent readout is initiated by adding to the streptavidin-coated plate Promega Attophos substrate (Promega, Cat. #S1000, dilution=6 mg/10 ml), which, when dephosphorylated by alkaline phosphatase, emits a fluorescent signal of 595 nm in wavelength when excited by a signal of 400 nm in wavelength. The reading of the 595 nm signal is done on the Perkin Elmer Envision system. Compounds which prevent FGFR2 from phosphorylating the peptide result in a lower fluorescent signal. The 595 nm fluorescent signal is directly proportional to the activity of FGFR2. Thus, the inhibition of FGFR2 by compounds is monitored by the decrease in the 595 nm fluorescent signal.
On the technique in general: ELISA stands for enzyme-linked immunosorbent assay.

Assay [2] relates to cancer cells. Description: MTS cell growth inhibition assay (72 hours). It counts as cell-based. In short, it runs like this: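 Growth inhibition read as formazan absorbance at 492 nm after 4 h MTS/PMS, following 72 h compound exposure at 37 °C in 1% FBS DMEM (cells pre-seeded 18 h). IC50 = 50% absorbance reduction; inhibition graded in bands.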
[3] abbreviates: Homo sapiens, DLD-1, 72 h, DLD-1 cells, read-out: DLD-1 MTS 72 hr at 10 μM.
Where [4] appears, read: Homo sapiens, KATO III, 72 h, KATO III cells, read-out: KATO III MTS 72 hr at 10 μM.
The mark [5] stands for this setting: Homo sapiens, MDA-MB-231, 72 h, MDA-MB-231 cells, read-out: MDA-MB-231 MTS 72 hr at 10 μM.
Where [6] appears, read: Homo sapiens, NCI-H1299, 72 h, NCI-H1299 cells, read-out: NCI-H1299 MTS 72 hr at 10 μM.
Where [7] appears, read: PaCa-2, 72 h, PACA-2 cells, read-out: PACA-2 MTS 72 hr at 10 μM.

T1 sequence (P21802 22-821 N549H): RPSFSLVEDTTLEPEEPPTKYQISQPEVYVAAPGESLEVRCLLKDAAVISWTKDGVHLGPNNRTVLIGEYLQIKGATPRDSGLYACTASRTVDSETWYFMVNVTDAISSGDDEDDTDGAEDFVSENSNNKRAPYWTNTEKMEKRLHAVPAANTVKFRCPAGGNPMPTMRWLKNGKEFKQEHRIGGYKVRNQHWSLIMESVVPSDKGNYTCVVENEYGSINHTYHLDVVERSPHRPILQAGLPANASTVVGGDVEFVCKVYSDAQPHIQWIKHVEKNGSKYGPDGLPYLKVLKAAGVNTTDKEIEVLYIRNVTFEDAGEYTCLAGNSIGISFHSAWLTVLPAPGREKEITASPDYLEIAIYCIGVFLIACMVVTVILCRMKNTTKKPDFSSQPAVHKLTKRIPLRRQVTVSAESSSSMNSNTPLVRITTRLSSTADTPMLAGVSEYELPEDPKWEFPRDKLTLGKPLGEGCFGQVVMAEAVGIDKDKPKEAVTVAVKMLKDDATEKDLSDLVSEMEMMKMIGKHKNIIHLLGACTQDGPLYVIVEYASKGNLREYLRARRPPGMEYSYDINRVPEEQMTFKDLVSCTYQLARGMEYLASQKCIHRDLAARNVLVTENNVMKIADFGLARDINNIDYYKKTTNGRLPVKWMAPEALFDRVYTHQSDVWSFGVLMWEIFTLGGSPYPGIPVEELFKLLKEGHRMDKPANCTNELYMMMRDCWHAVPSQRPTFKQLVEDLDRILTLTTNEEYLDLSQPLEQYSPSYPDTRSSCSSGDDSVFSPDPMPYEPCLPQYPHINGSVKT

In assay [1], `Nc1nc(NC2Cc3ccccc3N(S(=O)(=O)c3ccc(NC(=O)Nc4ccc(Cl)c(C(F)(F)F)c4)cc3)C2)c2cn[nH]c2n1` (stereo not drawn) [Compound 222, 1-(4-(3-(6-amino-1H-pyrazolo[3,4-d]pyrimidin-4-ylamino)-3,4-dihydroquinolin-1(2H)-ylsulfonyl)phenyl)-3-(4-chloro-3-(trifluromethyl)phenyl)urea] had an IC50 above 300 nM. In addition, the inhibition at 10 µM in assay [2] (setting [3]), in assay [2] (setting [4]), in assay [2] (setting [5]), in assay [2] (setting [6]) and in assay [2] (setting [7]) was above 79% each time.

For the molecule `Nc1nc(NC2Cc3ccccc3N(S(=O)(=O)c3ccc(Cl)c(Cl)c3)C2)c2cn[nH]c2n1` (stereo not drawn) [Compound 39, N4-(1-(3,4-dichlorophenylsulfonyl)-1,2,3,4-tetrahydroquinolin-3-yl)-1H-pyrazolo[3,4-d]pyrimidine-4,6-diamine], it took 880 nM to reach half-maximal inhibition in assay [1] (IC50). In addition, the inhibition at 10 µM in assay [2] (setting [3]) is below 50%; in assay [2] (setting [4]), 50 to 79%; in assay [2] (setting [5]) it was below 50%; in assay [2] (setting [6]), below 50%; in assay [2] (setting [7]) it was below 50%.

Molecule `Nc1nc(NC2Cc3ccccc3N(Cc3cccc(F)c3)C2)c2cn[nH]c2n1` (stereo not drawn) [Compound 128, N4-[1-(3-fluorobenzyl)-1,2,3,4-tetrahydroquinolin-3-yl]-1H-pyrazolo[3,4-d]pyrimidine-4,6-diamine] showed an IC50 in assay [1] of 2230 nM. The inhibition at 10 µM was below 50% in assay [2] (setting [3]); 50 to 79% in assay [2] (setting [4]); below 50% in assay [2] (setting [5]); below 50% in assay [2] (setting [6]); 50 to 79% in assay [2] (setting [7]).

Turning to `Nc1nc(NC2Cc3ccccc3N(S(=O)(=O)c3ccc(F)cc3Cl)C2)c2cn[nH]c2n1` (stereo not drawn) [Compound 53, N4-(1-(2-chloro-4-fluorophenylsulfonyl)-1,2,3,4-tetrahydroquinolin-3-yl)-1H-pyrazolo[3,4-d]pyrimidine-4,6-diamine], in assay [1], the IC50 came out at 410 nM. Further, the inhibition at 10 µM in assay [2] (setting [3]), in assay [2] (setting [4]), in assay [2] (setting [5]), in assay [2] (setting [6]) and in assay [2] (setting [7]) was below 50% in each case.

In assay [1], `Cc1ccccc1CN1CC(Nc2nc(N)nc3[nH]ncc23)Cc2ccccc21` (stereo not drawn) [Compound 129, N4-[1-(2-methylbenzyl)-1,2,3,4-tetrahydroquinolin-3-yl]-1H-pyrazolo[3,4-d]pyrimidine-4,6-diamine] came in with an IC50 of 16200 nM. The inhibition at 10 µM in assay [2] (setting [3]) was below 50%; in assay [2] (setting [4]), 50 to 79%; in assay [2] (setting [5]) it was below 50%; in assay [2] (setting [6]), below 50%; in assay [2] (setting [7]), below 50%.

Take `Cn1ccc(S(=O)(=O)N2CC(Nc3nc(N)nc4[nH]ncc34)Cc3ccccc32)n1` (stereo not drawn) [Compound 54, N4-(1-(1-methyl-1H-pyrazol-3-ylsulfonyl)-1,2,3,4-tetrahydroquinolin-3-yl)-1H-pyrazolo[3,4-d]pyrimidine-4,6-diamine]: in assay [1], the IC50 is above 30000 nM. In addition, the inhibition at 10 µM in assay [2] (setting [3]), in assay [2] (setting [4]), in assay [2] (setting [5]), in assay [2] (setting [6]) and in assay [2] (setting [7]) was below 50% in each case.

In assay [1], `Nc1nc(NC2Cc3ccccc3N(S(=O)(=O)c3ccccc3)C2)c2cn[nH]c2n1` (stereo not drawn) [Compound 25, N4-(1-(phenylsulfonyl)-1,2,3,4-tetrahydroquinolin-3-yl)-1H-pyrazolo[3,4-d]pyrimidine-4,6-diamine] had an IC50 of 340 nM. Also, the inhibition at 10 µM in assay [2] (setting [3]), in assay [2] (setting [4]), in assay [2] (setting [5]), in assay [2] (setting [6]) and in assay [2] (setting [7]) was below 50% each time.

`Nc1nc(NC2Cc3ccccc3N(Cc3cccc(Cl)c3)C2)c2cn[nH]c2n1` (stereo not drawn) [Compound 126, N4-[1-(3-chlorobenzyl)-1,2,3,4-tetrahydroquinolin-3-yl]-1H-pyrazolo[3,4-d]pyrimidine-4,6-diamine] returned an IC50 in assay [1] of 1190 nM. Moreover, the inhibition at 10 µM in assay [2] (setting [3]) was below 50%; in assay [2] (setting [4]), 50 to 79%; in assay [2] (setting [5]) it was below 50%; in assay [2] (setting [6]), below 50%; in assay [2] (setting [7]), 50 to 79%.

With `Nc1nc(NC2Cc3ccccc3N(CCc3ccc(Cl)cc3Cl)C2)c2cn[nH]c2n1` (stereo not drawn) [Compound 3, N^4-(1-(2-(2,4-dichlorophenyl)ethyl)-1,2,3,4-tetrahydroquinolin-3-yl)-1H-pyrazolo[3,4-d]pyrimidine-4,6-diamine], the IC50 in assay [1] was determined as 7830 nM. Also, the inhibition at 10 µM in assay [2] (setting [3]), in assay [2] (setting [4]), in assay [2] (setting [5]), in assay [2] (setting [6]) and in assay [2] (setting [7]) was above 79% in each case.

The molecule `Nc1nc(NC2Cc3ccccc3N(S(=O)(=O)c3cccc4cccnc34)C2)c2cn[nH]c2n1` (stereo not drawn) [Compound 28, N4-(1-(quinolin-8-ylsulfonyl)-1,2,3,4-tetrahydroquinolin-3-yl)-1H-pyrazolo[3,4-d]pyrimidine-4,6-diamine] registered an IC50 in assay [1] of 21500 nM. Besides, the inhibition at 10 µM in assay [2] (setting [3]), in assay [2] (setting [4]), in assay [2] (setting [5]), in assay [2] (setting [6]) and in assay [2] (setting [7]) was below 50% throughout.

Consider `Nc1nc(NC2Cc3ccccc3N(S(=O)(=O)c3cccc4ccccc34)C2)c2cn[nH]c2n1` (stereo not drawn) [Compound 31, N4-(1-(naphthalen-1-ylsulfonyl)-1,2,3,4-tetrahydroquinolin-3-yl)-1H-pyrazolo[3,4-d]pyrimidine-4,6-diamine], for which the midpoint of inhibition in assay [1], the IC50, lay at 3350 nM. The inhibition at 10 µM is below 50% in assay [2] (setting [3]); above 79% in assay [2] (setting [4]); below 50% in assay [2] (setting [5]); below 50% in assay [2] (setting [6]); below 50% in assay [2] (setting [7]).

`Nc1nc(NC2Cc3ccccc3N(Cc3ccc(Cl)c(Cl)c3)C2)c2cn[nH]c2n1` (stereo not drawn) [Compound 7, N^4-(1-(3,4-dichlorobenzyl)-1,2,3,4-tetrahydroquinolin-3-yl)-1H-pyrazolo[3,4-d]pyrimidine-4,6-diamine] had an IC50 in assay [1] of 3970 nM. The inhibition at 10 µM in assay [2] (setting [3]), in assay [2] (setting [4]), in assay [2] (setting [5]), in assay [2] (setting [6]) and in assay [2] (setting [7]) was above 79% in each case.

Turning to `Nc1nc(NC2Cc3ccccc3N(S(=O)(=O)c3cccs3)C2)c2cn[nH]c2n1` (stereo not drawn) [Compound 23, N4-(1-(thiophen-2-ylsulfonyl)-1,2,3,4-tetrahydroquinolin-3-yl)-1H-pyrazolo[3,4-d]pyrimidine-4,6-diamine], the IC50 in assay [1] came out at 2580 nM. Further, the inhibition at 10 µM in assay [2] (setting [3]), in assay [2] (setting [4]), in assay [2] (setting [5]), in assay [2] (setting [6]) and in assay [2] (setting [7]) was below 50% each time.

Take `COc1ccc(OC)c(CN2CC(Nc3nc(N)nc4[nH]ncc34)Cc3ccccc32)c1` (stereo not drawn) [Compound 121, N4-(1-(2,5-dimethoxybenzyl)-1,2,3,4-tetrahydroquinolin-3-yl)-1H-pyrazolo[3,4-d]pyrimidine-4,6-diamine]: the IC50 in assay [1] is above 30000 nM. The inhibition at 10 µM in assay [2] (setting [3]) was below 50%; in assay [2] (setting [4]), above 79%; in assay [2] (setting [5]), below 50%; in assay [2] (setting [6]) it was below 50%; in assay [2] (setting [7]), below 50%.
